Reference: ChEMBL document CHEMBL1671839 (ACS Med Chem Lett, 2011)
Values belong to the compound of their own block, whether it stands above or below them.

Columns and labels:
[1] = Cmax in cynomolgus monkey at 1 mg/kg, po; format: ADME, organism-based, Macaca fascicularis; parameters: dose 1 mg/kg, route oral; conditions: in vivo
[2] = Tmax in BALB/c mouse at 10 mg/kg, po; format: ADME, organism-based; parameters: dose 10 mg/kg, route oral; conditions: in vivo
[3] = Terminal phase volume of distribution […] in Beagle dog at 1 mg/kg, iv; format: ADME, organism-based, Canis lupus familiaris; parameters: dose 1 mg/kg, route intravenous; conditions: in vivo, read-out: Vbeta
in vivo [4] = conditions: Wistar, rat, iv, 1 mg/kg
[5] = Half life in Beagle dog at 1 mg/kg, iv; format: ADME, organism-based, Canis lupus familiaris; parameters: dose 1 mg/kg, route intravenous; conditions: in vivo
[6] = Cmax in BALB/c mouse at 10 mg/kg, po; format: ADME, organism-based; parameters: dose 10 mg/kg, route oral; conditions: in vivo
[7] = Oral bioavailability in cynomolgus monkey at 1 mg/kg; format: ADME, organism-based, Macaca fascicularis; conditions: in vivo
[8] = Terminal phase volume of distribution […] in cynomolgus monkey at 0.5 mg/kg, iv; format: ADME, organism-based, Macaca fascicularis; parameters: dose 0.5 mg/kg, route intravenous; conditions: in vivo, read-out: Vbeta
[9] = Plasma clearance in cynomolgus monkey at 0.5 mg/kg, iv; format: ADME, organism-based, Macaca fascicularis; parameters: dose 0.5 mg/kg, route intravenous
[10] = Volume of distribution at steady state in cynomolgus monkey at 0.5 mg/kg, iv; format: ADME, organism-based, Macaca fascicularis; parameters: dose 0.5 mg/kg, route intravenous; conditions: in vivo, read-out: Vdss
in vivo [11] = conditions: Wistar, rat, plasma, iv, 1 mg/kg
in vitro [12] = conditions: rat, liver microsomes
[13] = Cmax in Beagle dog at 1 mg/kg, po; format: ADME, organism-based, Canis lupus familiaris; parameters: dose 1 mg/kg, route oral; conditions: in vivo
[14] = Half life in cynomolgus monkey at 0.5 mg/kg, iv; format: ADME, organism-based, Macaca fascicularis; parameters: dose 0.5 mg/kg, route intravenous; conditions: in vivo
in vivo [15] = conditions: Wistar, rat, iv, 1 mg/kg; remark: listed apart in the source
[16] = AUC in Beagle dog at 1 mg/kg, iv; format: ADME, organism-based, Canis lupus familiaris; parameters: dose 1 mg/kg, route intravenous; conditions: plasma
[17] = Oral bioavailability in Beagle dog at 1 mg/kg; format: ADME, organism-based, Canis lupus familiaris; conditions: in vivo
[18] = Volume of distribution at steady state in Beagle dog at 1 mg/kg, iv; format: ADME, organism-based, Canis lupus familiaris; parameters: dose 1 mg/kg, route intravenous; conditions: in vivo, read-out: Vdss
in vivo [19] = conditions: Wistar, rat, plasma, iv, 1 mg/kg; remark: listed apart in the source
[20] = AUC in cynomolgus monkey at 0.5 mg/kg, iv; format: ADME, organism-based, Macaca fascicularis; parameters: dose 0.5 mg/kg, route intravenous; conditions: plasma
in vivo [21] = conditions: Wistar, rat, po, 10 mg/kg
[22] = Tmax in Beagle dog at 1 mg/kg, po; format: ADME, organism-based, Canis lupus familiaris; parameters: dose 1 mg/kg, route oral; conditions: in vivo
[23] = Tmax in cynomolgus monkey at 1 mg/kg, po; format: ADME, organism-based, Macaca fascicularis; parameters: dose 1 mg/kg, route oral; conditions: in vivo
in vivo [24] = conditions: Wistar, rat, po, 10 mg/kg; remark: listed apart in the source
[25] = Plasma clearance in Beagle dog at 1 mg/kg, iv; format: ADME, organism-based, Canis lupus familiaris; parameters: dose 1 mg/kg, route intravenous
in vitro [26] = conditions: human, liver microsomes
in vivo [27] = conditions: Wistar, rat, po, 10 mg/kg; remark: listed apart in the source
Rattus norvegicus = species: Rattus norvegicus; conditions: in vivo, iv, 1 mg/kg

Cmax [1]: 5900 ng/mL | Tmax [2]: 0.25 h | Vd [3]: 0.9 L/kg | Vd (in vivo [4]): 1.2 L/kg | half-life [5]: 8.6 h | Cmax [6]: 17400 ng/mL | bioavailability [7]: 100% | Vd [8]: 0.8 L/kg | clearance [9]: 3.4 mL/min/kg | Vd [10]: 0.4 L/kg | AUC (in vivo [11]): 920 ng·h/mL | metabolised at 0.5 h, 5 µM (in vitro [12]): 13% | Cmax [13]: 820 ng/mL | half-life [14]: 3.8 h | half-life (in vivo [15]): 0.8 h | AUC [16]: 13600 ng·h/mL | bioavailability [17]: 98% | Vd [18]: 0.8 L/kg | clearance (in vivo [19]): 18.3 mL/min/kg | AUC [20]: 3400 ng·h/mL | bioavailability (in vivo [21]): 100% | Tmax [22]: 2 h | Tmax [23]: 3 h | Cmax (in vivo [24]): 7110 ng/mL | clearance [25]: 1.7 mL/min/kg | metabolised at 0.5 h, 5 µM (in vitro [26]): 5% | Tmax (in vivo [27]): 0.25 h
SMILES: O=C(Nc1cnc(-c2ccncc2F)c(-c2cccnc2)n1)C1CC1 [LAS101057]

SMILES: CC(=O)Nc1cnc(-c2ccncc2)c(-c2ccco2)n1
Vd (in vivo [4]): 0.8 L/kg | AUC (Rattus norvegicus): 751000 ng·h/mL | half-life (in vivo [15]): 0.4 h | bioavailability (in vivo [21]): 93% | Tmax (in vivo [27]): 1.1 h
